Assay results published in US20250263376A1, “(E)-N-CINNAMOYLAMINOALKANOLS WITH MELANOGENESIS INHIBITORY ACTIVITY” (Uniwersytet Jagiellonski, priority 2024, published 2025).

Legend:
[1] = system: human reconstructed epidermis model EpiDerm; assay: Extended skin irritation test in reconstructed human epidermis EpiDerm; type: cell-based; conditions: 1.0% in 50% PEG (10 μL)
Protocol: Extended Skin Irritation Tests on Reconstructed Human Epidermis-Exposure Time Extended to 7 Days.
In order to perform extended skin irritation (safety) tests on the reconstructed human epidermis, the exposure time to the tested compounds was extended to 2 and 7 days in the human reconstructed epidermis model EpiDerm™ from MatTek. The epidermis was cultured according to the manufacturer's recommendations, using appropriate multi-well plates and culture media. Solutions of the tested compounds were applied to the epidermis using a positive displacement pipette and distributed using a sterile glass bulb headed Pasteur pipette. […] The epidermis was cultured in an incubator ensuring appropriate humidity, temperature (37° C.) and CO2 concentration (5%). The medium was replaced daily. After an appropriate incubation time, i.e. 2 days or 7 days, the epidermis was rinsed with sterile DPBS and incubated with MTT (Thiazolyl Blue Tetrazolium bromide) solution at 37° C. for 3 hours. After this time, a purple color of formazan was observed, correlated with tissue viability. […] Moreover, in the medium collected after the first 24 hours of EpiDerm epidermis culture, the level of interleukin 1α (Il-1α), which is a mediator of inflammation, was determined. Its level correlates with the unfavorable (irritating) effect of the tested substances on the epidermis. The level of IL-1α was determined using the Cayman Elisa test.

[2] = system: fibroblasts (BJ); assay: Safety, MTT test in fibroblasts; type: cell-based; conditions: 48 hours
Protocol: (§1) In order to test the safety of the compounds, both normal human cells were used: keratinocytes (HaCaT), fibroblasts (BJ), primary melanocytes that occur in the skin, as well as human cancer cells: the hepatocarcinoma line HepG2 and the neuroblastoma line SH-SY5Y, which are considered a model for the assessment of hepatocytotoxicity and neurocytotoxicity. The concentrations of the tested compounds in the range of […] were used in the studies. The cell lines used in the research were purchased from the American Type Culture Collection (ATCC) and were cultured in media recommended by the manufacturer with the addition of FBS and antibiotics in an incubator ensuring appropriate culture conditions, i.e. humidity, temperature and CO2 concentration. Cells were seeded into multiwell plates and incubated with the test compounds for 48 hours. After this time, MTT and LDH tests were performed to assess cell viability. The MTT test is based on the ability to transform the substrate: [3-(4,5-dimethyl-2-thiazolyl)-2,5-diphenyl-2H-tetrazolium bromide into a colored product only by living cells. The absorbance at 570 nm, which corresponds to the absorption maximum for the product, is directly proportional to cell viability. The LDH test is based on testing the activity of the enzyme lactate dehydrogenase in the culture medium, which is released from cells as a result of damage to the cell membrane, e.g. as a result of cell death. Triton X-100 was used as a positive control in the test. The determination is colorimetric, the substrate is transformed by the released enzyme into a colored product, an increase in absorbance indicates a larger amount of the released enzyme, and thus confirms greater damage to cell membranes. Tables 7 and 8 present the results obtained, which correspond to the viability of cells incubated with the compounds in relation to the viability of cells constituting a control sample, i.e. incubated with the solvent (DMSO) at the same concentration as in the case of the groups tested in the MTT test or in relation to the results obtained for the Triton X-100 positive control in the LDH test. They indicate that the compounds are safe at the concentrations tested.

[3] = system: S. typhimurium TA1535; assay: Ames microplate test, TA1535;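 note: bacteria exposed 90 min at 37 °C in exposure medium, then 48 h in indicator medium in 384-well plates, yellow (revertant) wells counted per condition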
Protocol: (§2) The study used the Ames microplate test (Ames MPF™ Penta 2 by Xenometrix, Allschwil, Switzerland). Growth medium, exposure medium, indicator medium, positive controls, hepatic microsomal fraction, NADP, glucose-6-phosphate, Salmonella typhimurium and Escherichia coli strains were components of the purchased experimental kit. Bacteria were grown overnight in growth medium. They were then exposed to the test compound at the appropriate concentration in exposure medium without or with the rat microsomal fraction S9 in 24-well plates for 90 min at 37° C. with shaking. Then, indicator medium was added to the wells and pipetted into 384-well plates, which were incubated for 48 hours at 37° C. without shaking. Results were assessed by counting the wells in which the medium turned yellow for each experimental condition.

[4] = system: S. typhimurium TA98; assay: Ames microplate test, TA98; type: cell-based, Salmonella typhimurium
Protocol: Bacteria were grown overnight in growth medium.

[5] = system: hepatocarcinoma HepG2; assay: Safety, MTT test in HepG2; type: cell-based; conditions: 48 hours
Protocol: as §1

[6] = system: keratinocytes (HaCaT); assay: Safety, MTT test in keratinocytes; type: cell-based; conditions: 48 hours
Protocol: as §1

[7] = system: S. typhimurium TA100; assay: Ames microplate test, TA100; type: cell-based, Salmonella typhimurium
[8] = system: E. coli WP2; assay: Ames microplate test, E. coli WP2;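 note: bacteria exposed to compound for 90 min at 37 °C in 24-well plates, then transferred with indicator medium to 384-well plates and incubated 48 h before yellow well counting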
Protocol: as §2

[9] = system: primary melanocytes; assay: Safety, LDH test in primary melanocytes; type: cell-based; conditions: 48 hours, vs Triton X-100
Protocol: as §1

[10] = system: neuroblastoma SH-SY5Y; assay: Safety, MTT test in SH-SY5Y; type: cell-based; conditions: 48 hours
Protocol: as §1

[11] = system: hepatocarcinoma HepG2; assay: Safety, LDH test in HepG2; type: cell-based; conditions: 48 hours, vs Triton X-100
Protocol: as §1

[12] = system: fibroblasts (BJ); assay: Safety, LDH test in fibroblasts; type: cell-based; conditions: 48 hours, vs Triton X-100
Protocol: as §1

O=C(/C=C/c1ccccc1)NCCCCCO [Compound A-133, (2E)-N-(5-hydroxypentyl)-3-phenylprop-2-enamide]
Viability [% of control, mean ± SD] 2 days [1]: 107.19 ± 7.45 % of control
Viability [% of control, mean ± SD] 7 days [1]: 107.26 ± 21.82 % of control
Il-1α in culture medium ([1]; medium after first 24 hours): 34.99 ± 1.17 pg/mL
MTT, Fibroblasts (BJ) ([2]; 100 μM): 99.41 ± 5.96 % of solvent control
MTT, Fibroblasts (BJ) ([2]; 150 μM): 91.68 ± 3.64 % of solvent control
MTT, Fibroblasts (BJ) ([2]; 200 μM): 87.76 ± 2.71 % of solvent control
MTT, Fibroblasts (BJ) ([2]; 250 μM): 82.50 ± 3.99 % of solvent control
Increase in the number of yellow wells compared to the reference level, TA1535 ([3]; 0.5 mM, + S9): 0.47
Increase in the number of yellow wells compared to the reference level, TA1535 ([3]; 0.5 mM, without S9): 0.92
Increase in the number of yellow wells compared to the reference level, TA1535 ([3]; 1.0 mM, + S9): 0.23
Increase in the number of yellow wells compared to the reference level, TA1535 ([3]; 1.0 mM, without S9): 0.55
Increase in the number of yellow wells compared to the reference level, TA1535 ([3]; 2.0 mM, + S9): 0.35
Increase in the number of yellow wells compared to the reference level, TA1535 ([3]; 2.0 mM, without S9): 1.10
Increase in the number of yellow wells compared to the reference level, TA98 ([4]; 0.5 mM, + S9): 0.50
Increase in the number of yellow wells compared to the reference level, TA98 ([4]; 0.5 mM, without S9): 0.44
Increase in the number of yellow wells compared to the reference level, TA98 ([4]; 1.0 mM, + S9): 0.67
Increase in the number of yellow wells compared to the reference level, TA98 ([4]; 1.0 mM, without S9): 0.33
Increase in the number of yellow wells compared to the reference level, TA98 ([4]; 2.0 mM, + S9): 1.00
Increase in the number of yellow wells compared to the reference level, TA98 ([4]; 2.0 mM, without S9): 0.67
MTT, Hepatocarcinoma HepG2 ([5]; 100 μM): 104.96 ± 7.60 % of solvent control
MTT, Hepatocarcinoma HepG2 ([5]; 150 μM): 100.66 ± 7.39 % of solvent control
MTT, Hepatocarcinoma HepG2 ([5]; 200 μM): 99.09 ± 1.60 % of solvent control
MTT, Hepatocarcinoma HepG2 ([5]; 250 μM): 98.92 ± 2.34 % of solvent control
MTT, Keratinocytes (HaCaT) ([6]; 100 μM): 101.35 ± 2.17 % of solvent control
MTT, Keratinocytes (HaCaT) ([6]; 150 μM): 101.40 ± 2.08 % of solvent control
MTT, Keratinocytes (HaCaT) ([6]; 200 μM): 101.51 ± 2.49 % of solvent control
MTT, Keratinocytes (HaCaT) ([6]; 250 μM): 95.53 ± 2.80 % of solvent control
Increase in the number of yellow wells compared to the reference level, TA100 ([7]; 0.5 mM, + S9): 0.83
Increase in the number of yellow wells compared to the reference level, TA100 ([7]; 0.5 mM, without S9): 0.60
Increase in the number of yellow wells compared to the reference level, TA100 ([7]; 1.0 mM, + S9): 0.78
Increase in the number of yellow wells compared to the reference level, TA100 ([7]; 1.0 mM, without S9): 1.03
Increase in the number of yellow wells compared to the reference level, TA100 ([7]; 2.0 mM, + S9): 0.61
Increase in the number of yellow wells compared to the reference level, TA100 ([7]; 2.0 mM, without S9): 0.57
Increase in the number of yellow wells compared to the reference level, E. coli WP2 ([8]; 0.5 mM, + S9): 0.27
Increase in the number of yellow wells compared to the reference level, E. coli WP2 ([8]; 0.5 mM, without S9): 0.73
Increase in the number of yellow wells compared to the reference level, E. coli WP2 ([8]; 1.0 mM, + S9): 0.44
Increase in the number of yellow wells compared to the reference level, E. coli WP2 ([8]; 1.0 mM, without S9): 0.37
Increase in the number of yellow wells compared to the reference level, E. coli WP2 ([8]; 2.0 mM, + S9): 0.53
Increase in the number of yellow wells compared to the reference level, E. coli WP2 ([8]; 2.0 mM, without S9): 1.10
LDH, Primary melanocytes ([9]; 100 μM): 4.68 percentage of positive control
LDH, Primary melanocytes ([9]; 150 μM): 7.59 percentage of positive control
LDH, Primary melanocytes ([9]; 200 μM): 16.71 percentage of positive control
LDH, Primary melanocytes ([9]; 250 μM): 19.45 percentage of positive control
MTT, Neuroblastoma SH-SY5Y ([10]; 100 μM): 101.50 ± 3.33 % of solvent control
MTT, Neuroblastoma SH-SY5Y ([10]; 150 μM): 100.75 ± 3.01 % of solvent control
MTT, Neuroblastoma SH-SY5Y ([10]; 200 μM): 100.62 ± 5.99 % of solvent control
MTT, Neuroblastoma SH-SY5Y ([10]; 250 μM): 100.41 ± 1.87 % of solvent control
LDH, Hepatocarcinoma HepG2 ([11]; 100 μM): 5.31 percentage of positive control
LDH, Hepatocarcinoma HepG2 ([11]; 150 μM): 7.07 percentage of positive control
LDH, Hepatocarcinoma HepG2 ([11]; 200 μM): 9.65 percentage of positive control
LDH, Hepatocarcinoma HepG2 ([11]; 250 μM): 16.13 percentage of positive control
LDH, Fibroblasts (BJ) ([12]; 100 μM): 5.00 percentage of positive control
LDH, Fibroblasts (BJ) ([12]; 150 μM): 4.47 percentage of positive control
LDH, Fibroblasts (BJ) ([12]; 200 μM): 14.72 percentage of positive control
LDH, Fibroblasts (BJ) ([12]; 250 μM): 28.31 percentage of positive control
